# Like-named read-outs stand apart in the source and are kept apart here.
# Experiments:
# cancer stem cells = assay: Survival rate of cancer stem cells after test compound is added (flow cytometry, Annexin V-FITC/PI, clinical specimen); type: cell-based, patient; settings: Homo sapiens, 18 h
# Method in brief: (§1)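 Patient tumour or leukaemia cells, identified by cancer-specific stem-cell markers (CD34+/CD38+ for AML), are treated with compound for 18 hours in serum-free IMDM. Apoptosis is then measured as Annexin V-FITC/PI staining by flow cytometry.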
# [1] = system: TNF-α secreted by synoviocyte; assay: Content of TNF-α in culture supernatant of synoviocyte of RA model rats given test compound; type: in vivo; settings: rat RA model, dose 30 mg/kg.2d; normal control 0.38 ± 0.027, NaCl 0.74 ± 0.098
# Method in brief: (§2)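 Rat RA model: compounds given at 30 mg/kg.2d, with normal control and NaCl groups. Synoviocyte culture supernatants assayed for secreted TNF-α and PGE2 by one referenced method, IL-1β by another.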
# cancer cells = assay: Survival rate of cancer cells after test compound is added (flow cytometry, Annexin V-FITC/PI, clinical specimen); type: cell-based, patient; settings: Homo sapiens, 18 h, read-out: Survival rate (%) All cells (Stem cells and ordinary cells)
# Method in brief: as §1
# [2] = system: PGE2 secreted by synoviocyte; assay: Content of PGE2 in culture supernatant of synoviocyte of RA model rats given test compound; type: in vivo; settings: rat RA model, dose 30 mg/kg.2d; normal control 8.34 ± 1.29, NaCl 32.44 ± 10.32
# Method in brief: as §2
# [3] = system: IL-1β secreted by synoviocyte; assay: Content of IL-1β in culture supernatant of synoviocyte of RA model rats given test compound; type: in vivo; settings: rat RA model, dose 30 mg/kg.2d; normal control 0.16 ± 0.034, NaCl 0.49 ± 0.136
# Method in brief: as §2
# [4] = Head and neck squamous cell carcinomas
structure (smiles),measurement,setting,value
C=C1C(=O)O[C@H]2[C@H]1CCC(C)=C1CC[C@@](C)(OC(=O)CCCc3cn(CCCCCCO)nn3)[C@@H]12 [Compound 21],viability at 10 µM,cancer stem cells; AML,66%
same,viability at 20 µM,cancer stem cells; AML,47%
same,viability at 10 µM,cancer stem cells; Brain glioma,68%
same,viability at 20 µM,cancer stem cells; Brain glioma,53%
same,viability at 10 µM,cancer stem cells; Brain tumor,65%
same,viability at 20 µM,cancer stem cells; Brain tumor,54%
same,viability at 10 µM,cancer stem cells; Breast cancer,62%
same,viability at 20 µM,cancer stem cells; Breast cancer,55%
same,viability at 10 µM,cancer stem cells; CLL,51%
same,viability at 20 µM,cancer stem cells; CLL,48%
same,viability at 10 µM,cancer stem cells; CML,75%
same,viability at 20 µM,cancer stem cells; CML,56%
same,viability at 10 µM,cancer stem cells; Children hepatoblastoma,74%
same,viability at 20 µM,cancer stem cells; Children hepatoblastoma,57%
same,viability at 10 µM,cancer stem cells; Colon adenocarcinoma,58%
same,viability at 20 µM,cancer stem cells; Colon adenocarcinoma,44%
same,viability at 10 µM,cancer stem cells; Colorectal cancer,73%
same,viability at 20 µM,cancer stem cells; Colorectal cancer,58%
same,viability at 10 µM,cancer stem cells; Gastric cancer,56%
same,viability at 20 µM,cancer stem cells; Gastric cancer,45%
same,viability at 10 µM,cancer stem cells; Gastrointestinal tumor,64%
same,viability at 20 µM,cancer stem cells; Gastrointestinal tumor,46%
same,viability at 10 µM,cancer stem cells; Glioma,78%
same,viability at 20 µM,cancer stem cells; Glioma,67%
same,viability at 10 µM,cancer stem cells; [4],75%
same,viability at 20 µM,cancer stem cells; [4],66%
same,viability at 10 µM,cancer stem cells; Laryngeal cancer,66%
same,viability at 20 µM,cancer stem cells; Laryngeal cancer,52%
same,viability at 10 µM,cancer stem cells; Liver cancer,64%
same,viability at 20 µM,cancer stem cells; Liver cancer,55%
same,viability at 10 µM,cancer stem cells; Lung adenocarcinoma,58%
same,viability at 20 µM,cancer stem cells; Lung adenocarcinoma,49%
same,viability at 10 µM,cancer stem cells; Lung cancer,63%
same,viability at 20 µM,cancer stem cells; Lung cancer,54%
same,viability at 10 µM,cancer stem cells; Malignant melanoma,59%
same,viability at 20 µM,cancer stem cells; Malignant melanoma,45%
same,viability at 10 µM,cancer stem cells; Nasopharynx cancer,55%
same,viability at 20 µM,cancer stem cells; Nasopharynx cancer,42%
same,viability at 10 µM,cancer stem cells; Ovarian cancer,56%
same,viability at 20 µM,cancer stem cells; Ovarian cancer,49%
same,viability at 10 µM,cancer stem cells; Pancreatic cancer,57%
same,viability at 20 µM,cancer stem cells; Pancreatic cancer,50%
same,viability at 10 µM,cancer stem cells; Prostate cancer,68%
same,viability at 20 µM,cancer stem cells; Prostate cancer,57%
same,viability at 10 µM,cancer stem cells; Retinoblastoma,56%
same,viability at 20 µM,cancer stem cells; Retinoblastoma,47%
same,viability at 10 µM,cancer stem cells; Skin cancer,56%
same,viability at 20 µM,cancer stem cells; Skin cancer,47%
same,Content of TNF-α in culture supernatant of synoviocyte (x ± s),[1],0.56 ± 0.034 ng/mL
same,viability at 10 µM,cancer cells; AML,75%
same,viability at 20 µM,cancer cells; AML,56%
same,viability at 10 µM,cancer cells; Brain glioma,79%
same,viability at 20 µM,cancer cells; Brain glioma,68%
same,viability at 10 µM,cancer cells; Brain tumor,75%
same,viability at 20 µM,cancer cells; Brain tumor,62%
same,viability at 10 µM,cancer cells; Breast cancer,72%
same,viability at 20 µM,cancer cells; Breast cancer,66%
same,viability at 10 µM,cancer cells; CLL,63%
same,viability at 20 µM,cancer cells; CLL,62%
same,viability at 10 µM,cancer cells; CML,82%
same,viability at 20 µM,cancer cells; CML,69%
same,viability at 10 µM,cancer cells; Children hepatoblastoma,81%
same,viability at 20 µM,cancer cells; Children hepatoblastoma,66%
same,viability at 10 µM,cancer cells; Colon adenocarcinoma,71%
same,viability at 20 µM,cancer cells; Colon adenocarcinoma,56%
same,viability at 10 µM,cancer cells; Colorectal cancer,78%
same,viability at 20 µM,cancer cells; Colorectal cancer,67%
same,viability at 10 µM,cancer cells; Gastric cancer,67%
same,viability at 20 µM,cancer cells; Gastric cancer,55%
same,viability at 10 µM,cancer cells; Gastrointestinal tumor,75%
same,viability at 20 µM,cancer cells; Gastrointestinal tumor,58%
same,viability at 10 µM,cancer cells; Glioma,87%
same,viability at 20 µM,cancer cells; Glioma,78%
same,viability at 10 µM,cancer cells; [4],86%
same,viability at 20 µM,cancer cells; [4],82%
same,viability at 10 µM,cancer cells; Laryngeal cancer,73%
same,viability at 20 µM,cancer cells; Laryngeal cancer,61%
same,viability at 10 µM,cancer cells; Liver cancer,77%
same,viability at 20 µM,cancer cells; Liver cancer,61%
same,viability at 10 µM,cancer cells; Lung adenocarcinoma,67%
same,viability at 20 µM,cancer cells; Lung adenocarcinoma,64%
same,viability at 10 µM,cancer cells; Lung cancer,74%
same,viability at 20 µM,cancer cells; Lung cancer,68%
same,viability at 10 µM,cancer cells; Malignant melanoma,69%
same,viability at 20 µM,cancer cells; Malignant melanoma,56%
same,viability at 10 µM,cancer cells; Nasopharynx cancer,65%
same,viability at 20 µM,cancer cells; Nasopharynx cancer,56%
same,viability at 10 µM,cancer cells; Ovarian cancer,64%
same,viability at 20 µM,cancer cells; Ovarian cancer,57%
same,viability at 10 µM,cancer cells; Pancreatic cancer,66%
same,viability at 20 µM,cancer cells; Pancreatic cancer,62%
same,viability at 10 µM,cancer cells; Prostate cancer,77%
same,viability at 20 µM,cancer cells; Prostate cancer,65%
same,viability at 10 µM,cancer cells; Retinoblastoma,65%
same,viability at 20 µM,cancer cells; Retinoblastoma,59%
same,viability at 10 µM,cancer cells; Skin cancer,64%
same,viability at 20 µM,cancer cells; Skin cancer,57%
same,Content of PGE2 in culture supernatant of synoviocyte (x ± s),[2],19.59 ± 3.25 ng/mL
same,Content of IL-1β in culture supernatant of synoviocyte (x ± s),[3],0.36 ± 0.057 ng/mL

# Source: US10463644B2, “Uses of sesquiterpene lactone compounds and their derivatives in drugs preparation” (ACCENDATECH, priority 2013, dated 2019)
